The values below are quoted from earlier work in patent US20110123575A1, “MODIFIED RELEASE NIACIN FORMULATIONS” (DR. REDDY'S LABORATORIES LTD., priority 2008, published 2011).

SMILES strings stand for the structures.

For the series the following is noted: white, crystalline powder.

As for `O=C(O)c1cccnc1` [Niacin, 3-pyridinecarboxylic acid], the solubility in water result is reported as “very soluble in water”.
